Laboratory results reported in the supplement of paper PMC10307832.

What was measured:
Test in all cases: relative viability (nuclei count vs DMSO), 5 days (fraction); higher = more cells survive
Mirin + Foretinib = compound: N=C1NC(=O)/C(=C/c2ccc(O)cc2)S1 [Mirin] + COc1cc2c(Oc3ccc(NC(=O)C4(C(=O)Nc5ccc(F)cc5)CC4)cc3F)ccnc2cc1OCCCN1CCOCC1 [Foretinib] (partner 0.25 µM)
In short: (§1)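 Each reported value is a median over duplicate plates. It expresses relative viability: treated-well nuclei count divided by vehicle-well nuclei count. Lung cancer cell lines in 1536-well plates were dosed by pin tool a day after seeding, alone with one drug or with a fixed anchor-drug dose plus five library-drug doses (not always all listed) in √10 steps, and nuclei were counted after 5 days.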

Mirin + OSI-027 = compound: N=C1NC(=O)/C(=C/c2ccc(O)cc2)S1 [Mirin] + COc1cccc2cc(-c3nc([C@H]4CC[C@H](C(=O)O)CC4)n4ncnc(N)c34)[nH]c12 [OSI-027] (partner 0.5 µM)
In short: as §1

Mirin + Crizotinib = compound: N=C1NC(=O)/C(=C/c2ccc(O)cc2)S1 [Mirin] + C[C@@H](Oc1cc(-c2cnn(C3CCNCC3)c2)cnc1N)c1c(Cl)ccc(F)c1Cl [Crizotinib] (partner 1 µM)
In short: as §1

Mirin + Alpelisib = compound: N=C1NC(=O)/C(=C/c2ccc(O)cc2)S1 [Mirin] + Cc1nc(NC(=O)N2CCC[C@H]2C(N)=O)sc1-c1ccnc(C(C)(C)C(F)(F)F)c1 [Alpelisib] (partner 2 µM)
In short: as §1

Cell Line | relative viability (Mirin + Foretinib; first compound 0.25 µM) | relative viability (Mirin + Foretinib; first compound 0.7906 µM) | relative viability (Mirin + Foretinib; first compound 2.5 µM) | relative viability (Mirin + Foretinib; first compound 7.906 µM) | relative viability (Mirin + Foretinib; first compound 25 µM) | relative viability (Mirin + OSI-027; first compound 0.25 µM) | relative viability (Mirin + OSI-027; first compound 0.7906 µM) | relative viability (Mirin + OSI-027; first compound 2.5 µM) | relative viability (Mirin + OSI-027; first compound 7.906 µM) | relative viability (Mirin + OSI-027; first compound 25 µM) | relative viability (Mirin + Crizotinib; first compound 0.25 µM) | relative viability (Mirin + Crizotinib; first compound 0.7906 µM) | relative viability (Mirin + Crizotinib; first compound 2.5 µM) | relative viability (Mirin + Crizotinib; first compound 7.906 µM) | relative viability (Mirin + Crizotinib; first compound 25 µM) | relative viability (Mirin + Alpelisib; first compound 0.25 µM) | relative viability (Mirin + Alpelisib; first compound 0.7906 µM) | relative viability (Mirin + Alpelisib; first compound 2.5 µM) | relative viability (Mirin + Alpelisib; first compound 7.906 µM) | relative viability (Mirin + Alpelisib; first compound 25 µM)
NCI-H2087 | 1.24 | 1.28 | 1 | 0.943 | 1.08 | 0.633 | 0.436 | 0.374 | 0.253 | 0.358 | 0.898 | 1.08 | 0.849 | 0.771 | 1.16 | 1.07 | 1.06 | 1.13 | 1.24 | 1.08
NCI-H2126 | 1.35 | 1.02 | 1.31 | 1.16 | 1.13 | 0.76 | 0.655 | 0.585 | 0.773 | 0.579 | 1.02 | 1.07 | 0.981 | 0.994 | 1.21 | 0.758 | 0.724 | 0.784 | 0.679 | 0.688
NCI-H2170 | 1.05 | 1 | 1.02 | 0.928 | 0.98 | 0.716 | 0.642 | 0.784 | 0.653 | 0.787 | 1.19 | 1.22 | 1.37 | 1.15 | 0.959 | 0.792 | 0.83 | 0.909 | 0.714 | 0.699
NCI-H2228 | 0.689 | 0.883 | 0.974 | 1.1 | 0.752 | 0.57 | 0.44 | 0.515 | 0.575 | 0.538 | 0.481 | 0.474 | 0.462 | 0.469 | 0.488 | 0.711 | 0.906 | 0.681 | 1.05 | 0.636
NCI-H2347 | 1.08 | 0.652 | 1.17 | 0.683 | 0.879 | 0.459 | 0.426 | 0.4 | 0.476 | 0.36 | 0.759 | 0.68 | 0.693 | 0.502 | 0.631 | 1.02 | 1.12 | 1.05 | 1.08 | 1.16
NCI-H2405 | 1.04 | 1.04 | 1.01 | 1.03 | 1.07 | 0.625 | 0.612 | 0.585 | 0.627 | 0.508 | 0.835 | 0.584 | 0.878 | 0.816 | 0.793 | 0.762 | 0.774 | 0.781 | 0.727 | 0.622
